Laboratory results from patent US20240301003A1 (NoNO Inc., priority 2021, published 2024).
Like-named read-outs stand apart in the source and are kept apart here. Where a SMILES comes first, the peptide text is derived from it. Where no end group is shown, it is not given here.

What was measured:
[1] = cited from earlier work
[2] = Plasmin sensitivity: peptides in PBS challenged with 10 ug/ml plasmin, HPLC; details: isolated enzyme plasmin
[3] = Renal biomarkers or electrolyte imbalance after administration to rats (Table 7); format: in vivo
Protocol: NoNO42 was tested for effect on various renal biomarkers or electrolyte imbalance in comparison with nerinetide after administration to rats as shown in Table 7.

[4] = rat, in vivo
Protocol: Blood plasma samples were collected before injection and at 10, 15, 20, 30, 45, 60 min post-dose. Each point represents the mean (±SD) of three animals per group.

plasmin [5] = target: T1, plasmin (Homo sapiens, UniProt P00747); test: in vitro; details: isolated enzyme plasmin
[6] = rat, in vivo; for Weight: iv
NMDAR2B:PSD-95 complexes = target: T2, NMDAR2B:PSD-95 complexes (Rattus norvegicus, UniProt P31016); test: Dissociation of NMDAR2B:PSD-95 complexes after 3PVo, immunoprecipitation and Western blotting; format: in vivo, Sprague-Dawley rats; details: 7.6 mg/kg 1 hr after stroke onset (3PVo), brains harvested 2 h after onset
T2 construct: Cortical stroke areas were collected for analysis; from tissue; host or cells: rat brain cortex (stroke area) after in vivo dosing
Protocol: Sprague-Dawley rats were subject to three pial vessel model (3PVo). […] Brains were harvested 2 h after stroke onsets. Cortical stroke areas were collected for analysis. Immunoprecipitations were performed with anti-PSD-95 or anti-NMDAR2B. The amount of PSD-95 and NMDAR2B in samples was analyzed by Western blotting. Reduction in PSD-95-NMDAR2B complex formation was assessed by fold decrease of placebo versus treatment.

[7] = Degradation in human plasma in vitro, alone or with rt-PA or TNK
Excerpt: (§1) Samples were collected at 6 different time points.
(§2) The experiment was repeated using TNK-tissue plasminogen activator in place of tPA.

plasmin [8] = target: T1, plasmin; test: Plasmin sensitivity: peptides in PBS challenged with 10 ug/ml plasmin, HPLC
[9] = Degradation in rat plasma in vitro, alone or with rt-PA or TNK
Excerpt: as §1, §2

[10] = humans; cited from earlier work
plasmin [11] = target: T1, plasmin; format: in vitro ADME; set-up: challenged with 10 ug/ml plasmin at 37 C
Excerpt: Plasmin is a serum protease induced by thrombolytic agents, such as tPA. Plasmin cleavage sites can occur on the C-terminal side of basic amino acids residues in a peptide formed of L-amino acids. NA-1 was digested with plasmin and the products analyzed by mass spectrometry. […] However, cleavage at the other two sites may occur to a lesser extent.

PSD95PDZ2 = PSD95PDZ2 (Homo sapiens, UniProt P78352); test: Competitive ELISA with biotinylated-NA-1; details: PSD-95 domain 2, FIG. 12
tPA = tPA (Homo sapiens, UniProt P00750)
[12] = Pharmacokinetic analysis in rats (subcutaneous, pulmonary instillation, intravenous, intramuscular), HPLC
Protocol: Rats were anaesthetized in the supine position (Isoflurane 1.5--%) and allowed to breath spontaneously in 0.5 L/min 02. The left femoral artery was cannulated for blood sampling.
Test agents were prepared at the stablish concentration in a total volume of vehicle. Pulmonary instillation was performed by intubation with a 14G catheter connected to a 1 cc syringe and the test agent will be delivered through the catheter. Subcutaneous (SQ or SC) injection was injected into the area of the left flank, no more than 2 ml of total volume per site.
Each dose was evaluated in 3 rats for each administration strategy. […] For the first experiment, evaluating two different administration routes (SQ and PI), blood samples were collected at 8 different timepoints: Pre and at 7 additional times (1, 2.5, 5, 10, 15, 30, 60 min) post dose (250 ul/sample).
HPLC quantification: Plasma was separated from blood and stored at −−−80° C. until used. […] Standard curves for HPLC were generated from plasma samples spiked with known quantities of test agent.

tMCAo = test: Dose range of nerinetide in rat tMCAo model; format: in vivo, rats
Protocol: Nerinetide and lodoxamide was administered to rats intravenously as a bolus injection, 60 minutes after tMCAo. […] Bars in A and represent mean±SD, with all individual data points plotted. Asterisks in A indicate P<0.01 when compared to the vehicle group (one-way ANOVA post hoc Tukey's correction for multiple comparisons test) N=12-14 animals/group. […] Significant differences are indicated with an asterisk when compared to the vehicle group (Kruskal-Wallis analysis of variance on ranks with a post-hoc Dunn's correction for multiple comparisons test, *P<0.01). Vehicle: PBS alone. […] Doses up to at least 25 mg/kg were also effective with the highest efficacy being at about 15 mg/kg. The observed wide therapeutic range was attributable to nerinetide, and not to the mast cell degranulation inhibitor lodoxamide, which was present in all solutions to avoid potential hypotension due to histamine release.

Weight gain of rats = details: IV 7.6 mg/kg
[13] = Plasma concentrations 15 minutes post subcutaneous dose (animals of the 3PVO model); format: in vivo, rat; details: single subcutaneous administration, 2.5, 7.6, 25 mg/kg
Protocol: Unlike transient models of stroke in rats where much lower doses are required for neuroprotection, neuroprotection in 3 pial vessel occlusion models of stroke seems to require plasma concentrations of nerinetide at or above 2 ug/mL (or molar equivalent). […] Although the plasma levels continue to increase through about 3 hours then decrease, it is important to achieve rapid accumulation in the blood and brain for emergency indications like stroke. […] For pharmacokinetic sample analysis, calibration standard samples at concentrations of 0, 2.5, 5, 10, 15, 20 and 40 ug/mL of nerinetide were prepared by spiking 1 μL of the appropriate stock to 100 μL of plasma. […] Data is presented as mean±SD.

[14] = human studies, 2.6 mg/kg dose; cited from earlier work
[15] = system: 3-pial vessel occlusion model of stroke
plasmin [16] = target: T1, plasmin; format: in vitro ADME; set-up: challenged with 10 ug/ml plasmin at 37 C; remark: listed apart in the source
[17] = IV bolus with lodoxamide 60 minutes after tMCAo

T1 sequence (P00747 581-810 limits assumed, species assumed): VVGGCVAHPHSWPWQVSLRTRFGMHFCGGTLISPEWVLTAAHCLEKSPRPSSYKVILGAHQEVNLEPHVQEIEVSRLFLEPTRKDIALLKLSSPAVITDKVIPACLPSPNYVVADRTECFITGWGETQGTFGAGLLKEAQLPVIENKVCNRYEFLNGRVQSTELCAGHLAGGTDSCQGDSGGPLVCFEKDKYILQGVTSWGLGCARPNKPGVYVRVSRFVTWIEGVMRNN
T1 sequence (P00747 97-580 partner limits assumed, species assumed): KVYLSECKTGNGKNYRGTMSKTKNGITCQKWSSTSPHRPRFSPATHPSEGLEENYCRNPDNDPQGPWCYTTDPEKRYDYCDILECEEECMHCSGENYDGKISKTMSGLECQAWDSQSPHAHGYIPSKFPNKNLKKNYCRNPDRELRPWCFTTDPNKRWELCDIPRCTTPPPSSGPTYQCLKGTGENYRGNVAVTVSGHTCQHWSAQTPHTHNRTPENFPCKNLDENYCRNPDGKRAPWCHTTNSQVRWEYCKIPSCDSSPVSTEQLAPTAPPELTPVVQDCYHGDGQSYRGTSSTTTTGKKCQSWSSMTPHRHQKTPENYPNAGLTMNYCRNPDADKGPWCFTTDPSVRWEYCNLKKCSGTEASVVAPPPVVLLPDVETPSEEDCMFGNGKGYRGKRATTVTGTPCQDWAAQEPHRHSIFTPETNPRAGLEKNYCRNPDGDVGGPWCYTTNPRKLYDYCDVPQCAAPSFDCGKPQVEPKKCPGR
Sequence of tPA (P00750 36-562): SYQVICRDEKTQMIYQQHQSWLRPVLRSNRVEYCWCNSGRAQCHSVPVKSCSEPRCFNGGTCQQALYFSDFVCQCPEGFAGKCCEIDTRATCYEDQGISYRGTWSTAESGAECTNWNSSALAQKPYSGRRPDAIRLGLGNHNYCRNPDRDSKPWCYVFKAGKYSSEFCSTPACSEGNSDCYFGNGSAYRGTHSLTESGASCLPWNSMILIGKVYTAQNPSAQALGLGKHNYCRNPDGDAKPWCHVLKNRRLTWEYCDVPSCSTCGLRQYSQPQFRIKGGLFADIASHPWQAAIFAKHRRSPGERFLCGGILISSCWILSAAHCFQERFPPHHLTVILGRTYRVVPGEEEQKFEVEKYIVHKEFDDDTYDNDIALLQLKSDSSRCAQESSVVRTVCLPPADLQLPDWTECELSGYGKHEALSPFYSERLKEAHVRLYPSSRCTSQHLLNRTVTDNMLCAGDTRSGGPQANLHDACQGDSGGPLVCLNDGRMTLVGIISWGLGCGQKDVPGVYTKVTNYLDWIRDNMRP
T2 sequence (P31016 whole entry, one chain of several): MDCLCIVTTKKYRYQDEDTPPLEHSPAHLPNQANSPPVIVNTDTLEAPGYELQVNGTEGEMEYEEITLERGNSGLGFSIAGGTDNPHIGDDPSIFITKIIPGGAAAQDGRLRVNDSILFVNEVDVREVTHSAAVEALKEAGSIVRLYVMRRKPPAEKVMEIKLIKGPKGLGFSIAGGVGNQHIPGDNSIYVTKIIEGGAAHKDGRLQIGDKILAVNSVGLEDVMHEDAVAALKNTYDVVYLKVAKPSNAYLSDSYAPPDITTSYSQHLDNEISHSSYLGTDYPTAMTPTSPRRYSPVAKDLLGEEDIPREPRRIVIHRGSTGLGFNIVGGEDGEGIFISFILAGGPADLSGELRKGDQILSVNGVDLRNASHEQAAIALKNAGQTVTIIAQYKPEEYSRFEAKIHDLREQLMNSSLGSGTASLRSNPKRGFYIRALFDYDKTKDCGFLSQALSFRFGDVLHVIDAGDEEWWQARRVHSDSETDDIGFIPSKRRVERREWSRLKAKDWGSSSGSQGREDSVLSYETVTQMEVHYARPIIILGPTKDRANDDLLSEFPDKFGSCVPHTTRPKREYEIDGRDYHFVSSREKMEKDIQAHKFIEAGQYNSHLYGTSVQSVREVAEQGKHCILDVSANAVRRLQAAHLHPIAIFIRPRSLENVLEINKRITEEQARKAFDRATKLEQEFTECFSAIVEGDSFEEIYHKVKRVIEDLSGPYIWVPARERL
Sequence of PSD95PDZ2 (P78352 160-246 limits assumed): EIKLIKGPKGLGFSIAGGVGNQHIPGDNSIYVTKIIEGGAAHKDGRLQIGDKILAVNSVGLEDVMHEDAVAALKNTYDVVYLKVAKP

## N[C@@H](Cc1ccc(O)c(O)c1)C(=O)O [Levodopa]
[1]
  half-life: 1.5 h

## CC[C@H](C)[C@H](NC(=O)[C@H](CO)NC(=O)[C@H](CO)NC(=O)[C@H](CC(C)C)NC(=O)[C@H](CCCCN)NC(=O)[C@H](CCCNC(=N)N)NC(=O)[C@@H](CCCNC(=N)N)NC(=O)[C@H](CCCNC(=N)N)NC(=O)[C@H](CCC(N)=O)NC(=O)[C@@H](CCCNC(=N)N)NC(=O)[C@H](CCCNC(=N)N)NC(=O)[C@H](CCCCN)NC(=O)[C@@H](CCCCN)NC(=O)[C@H](CCCNC(=N)N)NC(=O)CNC(=O)[C@@H](N)Cc1ccc(O)cc1)C(=O)N[C@@H](CCC(=O)O)C(=O)N[C@@H](CO)C(=O)N[C@@H](CC(=O)O)C(=O)N[C@H](C(=O)O)C(C)C [NA-4.4.3] (HELM PEPTIDE1{Y.G.R.[dK].K.R.[dR].Q.R.[dR].R.K.L.S.S.I.E.S.D.V}$$$$V2.0; N-terminus and C-terminus assumed)
[2]
  remaining at 0.5 h, 65 ug/ml: > 85%

## CC[C@H](C)[C@H](NC(=O)[C@H](CO)NC(=O)[C@H](CO)NC(=O)[C@H](CC(C)C)NC(=O)[C@@H](CCCCN)NC(=O)[C@H](CCCNC(=N)N)NC(=O)[C@H](CCCNC(=N)N)NC(=O)[C@@H](CCCNC(=N)N)NC(=O)[C@H](CCC(N)=O)NC(=O)[C@@H](CCCNC(=N)N)NC(=O)[C@H](CCCNC(=N)N)NC(=O)[C@H](CCCCN)NC(=O)[C@H](CCCCN)NC(=O)[C@@H](CCCNC(=N)N)NC(=O)CNC(=O)[C@@H](N)Cc1ccc(O)cc1)C(=O)N[C@@H](CCC(=O)O)C(=O)N[C@@H](CO)C(=O)N[C@@H](CC(=O)O)C(=O)N[C@H](C(=O)O)C(C)C [NoNO42] (HELM PEPTIDE1{Y.G.[dR].K.K.R.[dR].Q.[dR].R.R.[dK].L.S.S.I.E.S.D.V}$$$$V2.0; N-terminus and C-terminus assumed)
[3]; rat, in vivo
  renal biomarkers or electrolyte imbalance in comparison with nerinetide: No significant difference was observed
[3]; rat, in vivo, iv, 3.8 mg/kg
  Creatinine: 0.2 mg/dL
[3]; rat, in vivo, iv, 5.7 mg/kg
  iCa: 1.47 mmol/L
[3]; rat, in vivo, iv, 7.6 mg/kg
  Creatinine: 0.2 mg/dL
  tCO2: 33.7 mmol/L
[3]; rats, IV 3.8 mg/kg, Day 4
  Na+: 137.3 mmol/L
[3]; rats, IV 3.8 mg/kg, Pre
  Cl: 98.3 mmol/L
  iCa: 1.43 mmol/L
[3]; rats, IV 5.7 mg/kg, Day 4
  Na+: 137.3 mmol/L
[3]; rats, IV 5.7 mg/kg, Day 14
  iCa: 1.46 mmol/L
[3]; rats, IV 5.7 mg/kg, Pre
  iCa: 1.46 mmol/L
[3]; rats, IV 7.6 mg/kg, Day 4
  iCa: 1.46 mmol/L
  tCO2: 35.7 mmol/L
[3]; rats, IV 7.6 mg/kg, Day 14
  Cl: 98.3 mmol/L
  Hgb: 13.4 g/dL
  Na+: 137.3 mmol/L
  tCO2: 35.7 mmol/L
[4]
  CMax of NoNO42 5.7 mg/kg versus nerinetide 7.6 mg/kg: same CMax
Plasmin [5]
  remaining at 0.5 h, 65 ug/ml: ~100%
[6]
  weight gain compared with nerinetide: No significant difference was seen
[6]; 3.8 mg/kg
  Weight: 342.3 grams
[6]; 5.7 mg/kg
  Weight: 341.7 grams
[6]; 7.6 mg/kg
  Weight: 331.0 grams

## YGRKKRRQRRRKLSSIESDV [NA-1, reference compound]
[3]; rats, IV 7.6 mg/kg, Day 4
  Anion Gap: 7.3 mmol/L
  BUN: 13.7 mg/dL
  Cl: 100.7 mmol/L
  Creatinine: 0.2 mg/dL
  Glucose: 178.0 mg/dL
  Hct: 39% ± % PCV
  Hgb: 13.4 g/dL
  K+: 4.8 mmol/L
  Na+: 137.3 mmol/L
  iCa: 1.43 mmol/L
  tCO2: 35.0 mmol/L
[3]; rats, IV 7.6 mg/kg, Day 14
  Anion Gap: 9.0 mmol/L
  BUN: 16.7 mg/dL
  Cl: 98.3 mmol/L
  Creatinine: 0.2 mg/dL
  Glucose: 253.3 mg/dL
  Hct: 38% ± % PCV
  Hgb: 13.0 g/dL
  K+: 4.4 mmol/L
  Na+: 136.7 mmol/L
  iCa: 1.45 mmol/L
  tCO2: 34.3 mmol/L
[3]; rats, IV 7.6 mg/kg, Pre
  Anion Gap: 7.3 mmol/L
  BUN: 15.0 mg/dL
  Cl: 98.0 mmol/L
  Creatinine: 0.2 mg/dL
  Glucose: 251.7 mg/dL
  Hct: 38% ± % PCV
  Hgb: 13.0 g/dL
  K+: 4.8 mmol/L
  Na+: 135.7 mmol/L
  iCa: 1.46 mmol/L
  tCO2: 35.7 mmol/L
NMDAR2B:PSD-95 complexes
  dissociation of preformed NMDAR2B:PSD-95 complexes: able to dissociate preformed NMDAR2B:PSD-95 complexes
[7]; human plasma (FIG. 7)
  degradation with coadministration of TNK: rapid degradation
[7]; human plasma in vitro, NA-1 65 ug/mL, rt-PA 22.5-135 ug/mL
  NA-1 content decay with tPA versus NA-1 alone: decayed much more rapidly when tPA was co-administered
Plasmin [8]; 10 ug/mL plasmin (FIG. 29)
  time to degradation: ≤ 5 min
Plasmin [8]; about 65 ug/ml peptide in PBS, 10 ug/ml plasmin, 37 C, HPLC
  degradation by plasmin: completely degraded in about five minutes
[9]; rat plasma (FIG. 8)
  degradation with coadministration of TNK: rapid degradation
[9]; rat plasma in vitro, NA-1 65 ug/mL, rt-PA 22.5-135 ug/mL
  NA-1 content decay with tPA versus NA-1 alone: decayed much more rapidly when tPA was co-administered
[9]; rat plasma in vitro, treated with tPA
  time to decay to zero: ≤ 15 min
[10]
  doses at which drops in blood pressure have been observed: above 3.75 mg/kg
Plasmin [11]
  plasmin cleavage sites: cleavage at seven of nine potential sites
PSD95PDZ2
  EC50 (compared between peptides): about the same within experimental error
tPA
  degradation, control treatment with tPA: no degradation
  direct cleavage by tPA or TNK: Neither tPA nor TNK directly cleaves NA-1
[12]; intramuscular
  AUC versus intravenous NA-1: somewhat higher
  CMax versus intravenous NA-1: lower
  half-life versus intravenous NA-1: higher
[12]; subcutaneous
  AUC versus the same dose of intravenous NA-1: somewhat lower
  CMax versus the same dose of intravenous NA-1: much lower
  half-life versus intravenous NA-1: longer
tMCAo; [17]
  dose of highest efficacy: about 15 mg/kg
  doses up to which nerinetide was effective: at least 25 mg/kg
tMCAo; IV bolus with lodoxamide 60 minutes after tMCAo, 24 hours
  lowest dose producing significant reduction in infarct volume and improvement in neurological function: 0.25 mg/kg
tMCAo; rat tMCAo model, at least this range
  effective dosage range (reducing infarction size and neurologic deficit): 0.25-25 mg/kg
Weight gain of rats; Day 4
  Weight: 368.0 grams
Weight gain of rats; Day 14
  Weight: 420.0 grams
Weight gain of rats; Pre
  Weight: 360.3 grams
[13]
  relation between treatment dose and Cmax: dose proportionality between the treatment dose and the Cmax
[14]
  effective plasma concentration: ~10 µg/mL
[15]; 7.6 mg/kg subcutaneous bolus 60 minutes after onset of stroke
  infarct volume compared to placebo: failed to achieved infarct volume reduction
[15]; 25 mg/kg subcutaneous bolus 60 minutes after onset of stroke
  infarct volume compared to placebo: significant reduction in infarct volume
[15]; 3 pial vessel occlusion models of stroke
  plasma concentration required for neuroprotection: ≥ 2 µg/mL
Plasmin [16]
  degradation on treatment with plasmin: rapidly degraded
